Laboratory results as given in ChEMBL document CHEMBL1201862, “PubChem BioAssay data set” (2004).
Each block holds one molecule with its values, some of them ahead of it. The source made the active and inactive calls.

Tests used:
[1] = NIH3T3 cell viability loss – ATP luminescence, mouse fibroblasts, counter-screen, dose response (AID 2010); type: functional, cell-based;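 note: cells exposed to compound for about 90 hours before reading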
[2] = target: T1, Sentrin-specific protease 8 (Homo sapiens, UniProt Q96LD8); type: functional
T1 sequence (Q96LD8 whole entry): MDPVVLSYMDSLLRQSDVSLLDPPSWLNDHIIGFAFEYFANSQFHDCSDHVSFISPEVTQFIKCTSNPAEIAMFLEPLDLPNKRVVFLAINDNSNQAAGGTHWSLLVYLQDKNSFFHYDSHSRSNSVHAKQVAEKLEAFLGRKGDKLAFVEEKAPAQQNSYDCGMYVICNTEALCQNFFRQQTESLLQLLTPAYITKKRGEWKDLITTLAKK

[3] = target: T2, Rac GTPase-activating protein 1 (Homo sapiens, UniProt Q9H0H5); experiment: blockers of MgcRacGAP-driven Rac1 GTP hydrolysis – biochemical, ADP Hunter fluorescence, primary and confirmatory, confirmation (AID 624330); type: functional
T2 sequence (Q9H0H5 whole entry): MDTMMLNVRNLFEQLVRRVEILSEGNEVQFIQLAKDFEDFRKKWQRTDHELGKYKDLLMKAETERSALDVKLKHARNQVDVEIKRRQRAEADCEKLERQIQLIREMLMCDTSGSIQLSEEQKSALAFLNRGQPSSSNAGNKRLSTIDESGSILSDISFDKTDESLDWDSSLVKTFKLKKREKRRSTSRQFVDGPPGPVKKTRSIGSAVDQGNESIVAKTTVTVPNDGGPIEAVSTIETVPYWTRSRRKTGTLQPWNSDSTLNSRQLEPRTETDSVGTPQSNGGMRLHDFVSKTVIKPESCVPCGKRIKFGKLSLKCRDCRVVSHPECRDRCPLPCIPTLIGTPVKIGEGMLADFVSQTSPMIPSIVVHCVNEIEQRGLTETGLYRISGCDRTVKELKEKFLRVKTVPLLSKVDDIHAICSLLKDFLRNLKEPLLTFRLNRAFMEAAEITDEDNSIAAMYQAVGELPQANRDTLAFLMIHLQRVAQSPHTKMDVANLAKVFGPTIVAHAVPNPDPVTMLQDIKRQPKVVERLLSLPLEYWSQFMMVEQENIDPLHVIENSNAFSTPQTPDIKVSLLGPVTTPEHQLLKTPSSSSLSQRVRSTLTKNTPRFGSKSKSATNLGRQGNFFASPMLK

[4] = system: Streptococcus sp. 'group A'; experiment: Streptococcus pyogenes SK(-)GAS viability under kanamycin – luminescence, BacTiterGlo, confirmation, counter-screen for streptokinase expression inhibitor project, dose response (AID 1900); type: functional, organism-based; conditions: read-out: EC50
[5] = target: Testis-specific serine/threonine-protein kinase 2 (Homo sapiens, UniProt Q96PF2); type: functional;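 note: part of the Navigating the Kinome panel, target entry STK22B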
[6] = target: Death-associated protein kinase 3 (Homo sapiens, UniProt O43293); type: functional;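 note: measured as one member of a kinome-wide profiling panel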
[7] = target: High affinity nerve growth factor receptor (Homo sapiens, UniProt P04629); type: functional;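 note: NTRK1 tested as one member of a kinome-wide profiling panel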
[8] = target: Mitogen-activated protein kinase 13 (Homo sapiens, UniProt O15264); type: functional
[9] = target: Non-receptor tyrosine-protein kinase TYK2 (Homo sapiens, UniProt P29597); type: functional
[10] = target: Glycogen synthase kinase-3 alpha (Homo sapiens, UniProt P49840); type: functional;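 note: GSK3A result taken from a broad kinome-wide kinase panel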
[11] = target: Hepatocyte growth factor receptor (Homo sapiens, UniProt P08581); type: functional;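 note: kinase panel profiling across the kinome, with MET as the panel member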
[12] = target: Receptor tyrosine-protein kinase erbB-2 (Homo sapiens, UniProt P04626); experiment: Navigating the Kinome. Panel member name: ERBB2; type: functional
[13] = target: MAP kinase-interacting serine/threonine-protein kinase 2 (Homo sapiens, UniProt Q9HBH9); type: functional
[14] = target: Insulin-like growth factor 1 receptor (Homo sapiens, UniProt P08069); experiment: Navigating the Kinome. Panel member name: IGF1R; type: functional
[15] = target: Serine/threonine-protein kinase DCLK1 (Homo sapiens, UniProt O15075); type: functional;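 note: affinity for DCLK1 (listed as DCAMKL1) measured as one member of a kinome-wide kinase profiling panel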
[16] = target: Cyclin-dependent kinase 7 (Homo sapiens, UniProt P50613); type: functional;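 note: value comes from a kinome-wide kinase profiling panel in which CDK7 is one member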
[17] = target: Tyrosine-protein kinase FRK (Homo sapiens, UniProt P42685); type: functional;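 note: FRK tested as one member of a kinome panel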
Aminopeptidase N = target: T3, Aminopeptidase N (Plasmodium falciparum FcB1/Columbia, UniProt O96935); experiment: malaria alanyl aminopeptidase activity blockers – biochemical, fluorogenic H-Leu-NHMec substrate, 1536-well (AID 1445); set-up: species or system Plasmodium falciparum 3D7, 3D7
T3 sequence (O96935 whole entry): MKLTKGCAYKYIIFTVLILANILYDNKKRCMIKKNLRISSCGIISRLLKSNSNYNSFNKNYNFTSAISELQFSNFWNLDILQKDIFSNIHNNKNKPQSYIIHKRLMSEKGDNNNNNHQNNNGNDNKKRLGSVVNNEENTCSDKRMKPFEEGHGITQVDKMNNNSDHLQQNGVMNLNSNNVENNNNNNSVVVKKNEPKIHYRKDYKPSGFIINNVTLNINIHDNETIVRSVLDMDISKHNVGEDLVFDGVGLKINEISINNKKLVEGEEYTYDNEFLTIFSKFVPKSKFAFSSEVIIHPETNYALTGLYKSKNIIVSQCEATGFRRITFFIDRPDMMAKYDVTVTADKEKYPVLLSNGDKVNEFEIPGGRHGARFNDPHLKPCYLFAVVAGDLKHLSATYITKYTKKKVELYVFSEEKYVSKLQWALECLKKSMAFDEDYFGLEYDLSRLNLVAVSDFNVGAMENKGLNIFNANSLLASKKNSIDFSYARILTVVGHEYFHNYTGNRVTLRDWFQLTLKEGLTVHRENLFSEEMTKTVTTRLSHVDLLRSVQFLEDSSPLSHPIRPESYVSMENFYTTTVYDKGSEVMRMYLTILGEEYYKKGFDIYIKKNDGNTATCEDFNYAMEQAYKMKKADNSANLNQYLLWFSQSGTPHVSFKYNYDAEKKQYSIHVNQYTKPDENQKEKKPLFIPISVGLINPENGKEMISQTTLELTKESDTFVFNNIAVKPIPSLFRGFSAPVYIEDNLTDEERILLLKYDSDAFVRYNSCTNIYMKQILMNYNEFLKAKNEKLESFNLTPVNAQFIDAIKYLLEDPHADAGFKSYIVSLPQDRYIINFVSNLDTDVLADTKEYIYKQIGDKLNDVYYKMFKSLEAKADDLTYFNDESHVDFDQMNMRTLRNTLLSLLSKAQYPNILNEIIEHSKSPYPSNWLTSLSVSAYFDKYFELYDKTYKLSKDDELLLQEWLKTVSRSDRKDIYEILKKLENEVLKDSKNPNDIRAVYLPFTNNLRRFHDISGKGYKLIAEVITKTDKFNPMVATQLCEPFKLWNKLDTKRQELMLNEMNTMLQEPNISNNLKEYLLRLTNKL

Cyclin-dependent kinase 7, sequence (P50613 whole entry): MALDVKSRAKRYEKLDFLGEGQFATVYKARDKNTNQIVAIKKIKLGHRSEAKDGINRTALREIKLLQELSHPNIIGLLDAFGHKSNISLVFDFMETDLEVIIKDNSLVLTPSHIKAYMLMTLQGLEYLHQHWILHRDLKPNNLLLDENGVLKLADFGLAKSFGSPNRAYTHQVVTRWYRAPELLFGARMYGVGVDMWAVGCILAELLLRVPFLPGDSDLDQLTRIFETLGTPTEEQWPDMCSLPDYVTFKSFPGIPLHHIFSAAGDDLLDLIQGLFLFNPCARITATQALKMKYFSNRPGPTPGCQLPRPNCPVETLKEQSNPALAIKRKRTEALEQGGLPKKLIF
Tyrosine-protein kinase FRK, sequence (P42685 whole entry): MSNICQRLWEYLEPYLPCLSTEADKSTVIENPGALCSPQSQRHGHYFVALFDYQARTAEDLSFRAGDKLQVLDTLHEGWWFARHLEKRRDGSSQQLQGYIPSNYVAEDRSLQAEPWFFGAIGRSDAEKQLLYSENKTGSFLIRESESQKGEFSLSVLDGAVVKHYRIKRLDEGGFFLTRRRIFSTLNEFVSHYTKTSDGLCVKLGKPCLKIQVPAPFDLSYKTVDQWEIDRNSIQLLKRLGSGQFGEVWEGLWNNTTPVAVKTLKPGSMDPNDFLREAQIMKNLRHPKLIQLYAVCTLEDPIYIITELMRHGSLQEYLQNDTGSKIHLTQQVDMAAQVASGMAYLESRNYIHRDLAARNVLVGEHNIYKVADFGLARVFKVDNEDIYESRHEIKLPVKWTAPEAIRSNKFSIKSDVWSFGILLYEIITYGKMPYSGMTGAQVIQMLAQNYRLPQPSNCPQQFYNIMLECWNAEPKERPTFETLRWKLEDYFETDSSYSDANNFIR
High affinity nerve growth factor receptor, sequence (P04629 whole entry): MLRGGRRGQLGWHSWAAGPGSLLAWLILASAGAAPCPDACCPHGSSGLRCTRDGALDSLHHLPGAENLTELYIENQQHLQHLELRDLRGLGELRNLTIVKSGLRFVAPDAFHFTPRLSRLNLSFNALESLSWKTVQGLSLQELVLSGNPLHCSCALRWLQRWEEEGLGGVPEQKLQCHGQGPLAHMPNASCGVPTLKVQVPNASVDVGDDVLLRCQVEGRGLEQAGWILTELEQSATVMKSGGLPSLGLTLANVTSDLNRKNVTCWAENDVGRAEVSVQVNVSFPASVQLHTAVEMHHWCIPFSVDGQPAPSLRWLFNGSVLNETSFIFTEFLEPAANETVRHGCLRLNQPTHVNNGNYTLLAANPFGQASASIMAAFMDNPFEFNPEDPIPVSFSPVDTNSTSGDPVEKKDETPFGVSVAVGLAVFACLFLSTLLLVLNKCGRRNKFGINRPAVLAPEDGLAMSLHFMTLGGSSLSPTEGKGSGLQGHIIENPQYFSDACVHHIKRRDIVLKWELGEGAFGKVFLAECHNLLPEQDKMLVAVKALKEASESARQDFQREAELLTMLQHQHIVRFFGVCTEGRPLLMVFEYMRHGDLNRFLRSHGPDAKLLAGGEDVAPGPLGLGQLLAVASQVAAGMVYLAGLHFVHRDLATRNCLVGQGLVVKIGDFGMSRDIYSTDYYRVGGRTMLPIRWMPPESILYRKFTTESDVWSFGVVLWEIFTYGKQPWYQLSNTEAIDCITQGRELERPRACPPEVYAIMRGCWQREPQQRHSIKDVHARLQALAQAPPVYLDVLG
MAP kinase-interacting serine/threonine-protein kinase 2, sequence (Q9HBH9 whole entry): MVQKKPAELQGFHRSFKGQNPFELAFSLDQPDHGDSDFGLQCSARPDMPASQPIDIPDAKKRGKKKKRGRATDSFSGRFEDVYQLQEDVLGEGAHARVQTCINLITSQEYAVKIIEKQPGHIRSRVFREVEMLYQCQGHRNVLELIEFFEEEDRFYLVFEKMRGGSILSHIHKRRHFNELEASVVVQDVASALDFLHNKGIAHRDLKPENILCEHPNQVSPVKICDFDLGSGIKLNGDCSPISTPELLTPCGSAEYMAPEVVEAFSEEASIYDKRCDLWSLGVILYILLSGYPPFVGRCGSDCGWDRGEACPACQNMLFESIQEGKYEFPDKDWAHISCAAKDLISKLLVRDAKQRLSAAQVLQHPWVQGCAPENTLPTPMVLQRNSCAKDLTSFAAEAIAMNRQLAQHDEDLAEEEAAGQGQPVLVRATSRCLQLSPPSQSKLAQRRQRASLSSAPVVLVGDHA
Glycogen synthase kinase-3 alpha, sequence (P49840 whole entry): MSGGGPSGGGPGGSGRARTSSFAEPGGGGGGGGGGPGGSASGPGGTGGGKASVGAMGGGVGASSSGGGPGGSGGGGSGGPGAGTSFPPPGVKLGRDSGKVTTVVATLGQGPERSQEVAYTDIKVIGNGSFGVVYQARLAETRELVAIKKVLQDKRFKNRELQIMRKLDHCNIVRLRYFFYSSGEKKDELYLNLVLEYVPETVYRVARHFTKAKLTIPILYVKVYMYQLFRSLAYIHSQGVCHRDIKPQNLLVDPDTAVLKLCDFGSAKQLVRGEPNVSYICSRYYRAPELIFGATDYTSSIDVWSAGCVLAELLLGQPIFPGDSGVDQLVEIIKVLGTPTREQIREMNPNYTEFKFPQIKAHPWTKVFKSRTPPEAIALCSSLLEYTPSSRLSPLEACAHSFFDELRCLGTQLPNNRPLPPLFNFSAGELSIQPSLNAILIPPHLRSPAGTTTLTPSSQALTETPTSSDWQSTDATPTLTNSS
Hepatocyte growth factor receptor, sequence (P08581 whole entry): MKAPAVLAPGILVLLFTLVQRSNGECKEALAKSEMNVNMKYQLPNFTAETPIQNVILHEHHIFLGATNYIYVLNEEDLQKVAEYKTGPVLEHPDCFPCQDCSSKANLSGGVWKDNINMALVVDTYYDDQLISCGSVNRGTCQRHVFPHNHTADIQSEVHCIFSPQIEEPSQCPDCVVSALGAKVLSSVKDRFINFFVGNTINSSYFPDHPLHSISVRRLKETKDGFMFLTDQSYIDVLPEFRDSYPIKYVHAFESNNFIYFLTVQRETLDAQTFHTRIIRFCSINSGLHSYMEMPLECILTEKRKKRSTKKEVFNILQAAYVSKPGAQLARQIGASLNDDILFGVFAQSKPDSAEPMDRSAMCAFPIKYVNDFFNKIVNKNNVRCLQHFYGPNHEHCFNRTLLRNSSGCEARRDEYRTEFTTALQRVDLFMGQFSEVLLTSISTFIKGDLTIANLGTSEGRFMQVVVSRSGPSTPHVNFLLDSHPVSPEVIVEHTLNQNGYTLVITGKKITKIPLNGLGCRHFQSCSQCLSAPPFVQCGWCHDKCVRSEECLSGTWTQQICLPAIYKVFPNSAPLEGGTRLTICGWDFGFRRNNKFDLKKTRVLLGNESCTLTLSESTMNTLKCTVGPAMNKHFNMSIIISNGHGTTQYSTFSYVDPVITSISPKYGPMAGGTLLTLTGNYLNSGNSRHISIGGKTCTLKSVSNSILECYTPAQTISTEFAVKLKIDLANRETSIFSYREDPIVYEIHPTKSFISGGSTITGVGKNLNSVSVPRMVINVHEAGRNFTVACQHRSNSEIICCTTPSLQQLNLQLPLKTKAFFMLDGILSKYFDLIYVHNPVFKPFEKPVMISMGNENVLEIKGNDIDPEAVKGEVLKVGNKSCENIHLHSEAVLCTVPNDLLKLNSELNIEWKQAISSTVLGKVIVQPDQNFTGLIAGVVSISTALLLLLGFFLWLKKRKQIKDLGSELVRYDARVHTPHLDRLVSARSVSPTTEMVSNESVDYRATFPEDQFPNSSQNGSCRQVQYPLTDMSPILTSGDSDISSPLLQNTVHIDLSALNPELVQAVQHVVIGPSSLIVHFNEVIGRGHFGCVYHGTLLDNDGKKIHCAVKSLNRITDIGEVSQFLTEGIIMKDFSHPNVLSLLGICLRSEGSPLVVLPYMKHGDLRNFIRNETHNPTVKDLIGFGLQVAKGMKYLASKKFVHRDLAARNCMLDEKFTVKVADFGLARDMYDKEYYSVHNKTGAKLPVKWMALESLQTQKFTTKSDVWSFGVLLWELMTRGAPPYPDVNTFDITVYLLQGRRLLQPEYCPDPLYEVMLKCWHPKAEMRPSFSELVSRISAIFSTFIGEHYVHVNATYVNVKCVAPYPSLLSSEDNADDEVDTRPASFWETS
Death-associated protein kinase 3, sequence (O43293 whole entry): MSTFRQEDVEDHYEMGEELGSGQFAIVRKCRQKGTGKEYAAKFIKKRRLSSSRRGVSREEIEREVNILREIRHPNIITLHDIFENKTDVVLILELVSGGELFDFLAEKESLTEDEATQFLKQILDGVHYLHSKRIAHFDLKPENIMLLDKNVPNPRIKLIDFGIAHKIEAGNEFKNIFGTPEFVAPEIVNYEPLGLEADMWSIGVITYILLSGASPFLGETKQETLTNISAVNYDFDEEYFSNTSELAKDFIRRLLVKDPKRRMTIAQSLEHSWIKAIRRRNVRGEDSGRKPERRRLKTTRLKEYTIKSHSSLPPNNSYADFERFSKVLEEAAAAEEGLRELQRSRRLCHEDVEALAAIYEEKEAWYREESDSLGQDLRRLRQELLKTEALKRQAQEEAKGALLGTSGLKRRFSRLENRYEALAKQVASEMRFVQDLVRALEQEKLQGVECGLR
Testis-specific serine/threonine-protein kinase 2, sequence (Q96PF2 whole entry): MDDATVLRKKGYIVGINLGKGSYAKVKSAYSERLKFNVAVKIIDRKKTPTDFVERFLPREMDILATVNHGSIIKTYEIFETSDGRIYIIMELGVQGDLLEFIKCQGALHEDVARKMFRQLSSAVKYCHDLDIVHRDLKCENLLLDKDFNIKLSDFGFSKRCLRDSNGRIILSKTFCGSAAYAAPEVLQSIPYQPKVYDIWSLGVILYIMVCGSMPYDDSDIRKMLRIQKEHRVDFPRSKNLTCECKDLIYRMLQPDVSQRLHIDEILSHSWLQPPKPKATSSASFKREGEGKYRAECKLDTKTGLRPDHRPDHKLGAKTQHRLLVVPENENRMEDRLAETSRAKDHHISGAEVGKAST

Structure (SMILES): O=C(CCc1ccccc1)NNc1cc(N2CCCCC2)nc(N2CCCCC2)n1
- EC50 [1]: > 60000 nM (not active)
- IC50 [2]: 605 nM (active)

Structure (SMILES): O=C(O)C1Nc2c(O)cc(Cl)c([N+](=O)[O-])c2C2C=CCC12 (centres undefined)
- IC50 [3]: 27900 nM (active)

Structure (SMILES): O=C1C=C(N2CCCCC2)c2ccccc2C1=O
- EC50 [4]: 1880 nM (active)

- Ki [5]: 1580 nM (active)
- Ki [7]: > 2510 nM (inactive)
- Ki [8]: 631 nM (active)
- Ki [9]: > 2000 nM (inactive)
- Ki [10]: 50.1 nM (active)
- Ki [11]: > 3160 nM (inactive)
- Ki [12]: > 1580 nM (inactive)
- Ki [13]: 316 nM (active)
- Ki [14]: > 2000 nM (inactive)
- Ki [15]: 3160 nM (active)
- Ki [16]: 20 nM (active)
- pKi [16]: 7.7
- Ki [17]: > 2510 nM (inactive)
Structure (SMILES): Cc1n[nH]c2ccc(-c3cncc(OCC(N)Cc4cccc(Cl)c4)c3)cc12 (centres undefined)
- Ki [6]: 79.4 nM (active)

- IC50 (Aminopeptidase N): 17400 nM (active)
Structure (SMILES): O=C1N=C(NS(=O)(=O)Cc2ccccc2)S/C1=C1\C(=O)Nc2ccccc21
